The results in this text go back to ChEMBL document CHEMBL2029261 (Bioorg Med Chem Lett, 2012).

A short description of test [1]: Binding affinity to amyloid beta (1 to 40) aggregates assessed as change in fluorescence intensity at 10 uM relative to control.
Test [2] can be described thus: Apparent binding affinity to amyloid beta (1 to 40) aggregates. The settings on record: read-out: Kd(app).
For test [3], the species on record is Mus musculus. Put plainly: Binding affinity to amyloid beta plaque in mouse brain tissue by thioflavin staining-based fluorescence analysis.
Test [4] concerns the target Amyloid-beta precursor protein (Homo sapiens) (UniProt P05067). Put plainly: Binding affinity to unlabeled amyloid beta (1 to 42) expressed in human SH-SY5Y cells at 10 uM after 10 mins thioflavin staining-based by fluorescence microscopic analysis.
Test [5] is filed under the species Mus musculus. Put plainly: Binding affinity to amyloid beta plaque in APP/PS1 transgenic mouse brain tissue by thioflavin staining-based fluorescence analysis.

The structures appear in SMILES notation. Calls of active or inactive are those of the source. The rule behind the calls is not given here.

Chain of Amyloid-beta precursor protein (Homo sapiens) (P05067 whole entry): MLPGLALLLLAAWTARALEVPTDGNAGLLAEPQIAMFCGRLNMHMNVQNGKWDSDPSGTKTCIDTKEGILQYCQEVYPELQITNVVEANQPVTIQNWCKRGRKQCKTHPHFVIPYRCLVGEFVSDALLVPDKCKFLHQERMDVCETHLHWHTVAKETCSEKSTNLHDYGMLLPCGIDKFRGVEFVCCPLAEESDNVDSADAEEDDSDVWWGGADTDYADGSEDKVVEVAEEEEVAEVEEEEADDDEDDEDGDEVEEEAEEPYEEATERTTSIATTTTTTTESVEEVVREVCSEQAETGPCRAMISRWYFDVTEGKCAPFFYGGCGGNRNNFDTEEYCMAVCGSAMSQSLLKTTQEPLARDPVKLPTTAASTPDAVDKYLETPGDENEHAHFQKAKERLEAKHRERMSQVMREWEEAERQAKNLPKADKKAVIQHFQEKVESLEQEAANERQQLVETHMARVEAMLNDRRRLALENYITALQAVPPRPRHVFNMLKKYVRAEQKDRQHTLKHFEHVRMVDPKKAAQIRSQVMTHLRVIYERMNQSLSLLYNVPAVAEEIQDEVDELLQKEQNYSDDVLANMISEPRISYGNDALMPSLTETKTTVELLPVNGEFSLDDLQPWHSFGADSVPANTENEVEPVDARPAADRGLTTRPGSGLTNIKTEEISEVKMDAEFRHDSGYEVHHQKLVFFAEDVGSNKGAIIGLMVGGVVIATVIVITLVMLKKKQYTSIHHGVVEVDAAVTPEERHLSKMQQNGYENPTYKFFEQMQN

For `COc1cc(/C=C/n2ncc(Cl)c(Cl)c2=O)cc(OC)c1OC`, the FC in test [1] stood at 26.1. In addition, in test [2], the Kd was 4.14 µM.
On to `Cc1ccc(/C=C/n2ncc(Cl)c(Cl)c2=O)cc1`, for which, in test [1], the fold change (FC) was determined as 2.81.
On to `O=c1c(Cl)c(Cl)cnn1/C=C/c1ccc(F)cc1`, for which the fold change (FC) in test [1] was found to be 5.93.
As to `COc1ccc(/C=C/n2ncc(Cl)c(Cl)c2=O)cc1`, the fold change (FC) in test [1] came to 19.8. The Kd in test [2] turned out to be 2.57 µM.
In the case of `O=c1c(Cl)c(Cl)cnn1/C=C/c1ccc([N+](=O)[O-])cc1`, in test [1], the fold change (FC) was found to be 2.24.
Turning to `O=c1c(Cl)c(Cl)cnn1/C=C/c1ccccc1[N+](=O)[O-]`, the fold change (FC) in test [1] was 4.12.
Turning to `N#Cc1ccc(/C=C/n2ncc(Cl)c(Cl)c2=O)cc1`, the fold change (FC) in test [1] was determined as 2.94.
On to `O=c1c(Cl)c(Cl)cnn1/C=C/c1cccc([N+](=O)[O-])c1`, for which the fold change (FC) in test [1] was 2.12.
In the case of `COc1ccc(/C=C/n2ncc(Cl)c(Cl)c2=O)c(OC)c1OC`, in test [1], the fold change (FC) came out at 26.8. Besides, in test [2], the Kd stood at 4.24 µM.
`COc1ccc(/C=C/n2ncc(Cl)c(Cl)c2=O)c(OC)c1`: the fold change (FC) in test [1] came to 11.5. Moreover, in test [2], the Kd amounted to 5.03 µM.
On to `COc1cccc(/C=C/n2ncc(Cl)c(Cl)c2=O)c1OC`, for which the fold change (FC) in test [1] stood at 15.3. Besides, the Kd in test [2] stood at 8.52 µM.
With `COc1ccc(OC)c(/C=C/n2ncc(Cl)c(Cl)c2=O)c1`, the fold change (FC) in test [1] was determined as 3.42.
Regarding `O=c1c(Cl)c(Cl)cnn1/C=C/c1ccc(Cl)cc1`, the fold change (FC) in test [1] was determined as 3.03.
As for `COc1ccc(/C=C/n2ncc(Cl)c(Cl)c2=O)cc1OC`, in test [1], the fold change (FC) is 3.52.
For `COc1cccc(OC)c1/C=C/n1ncc(Cl)c(Cl)c1=O`, the fold change (FC) in test [1] was 4.53.
For `COc1ccccc1/C=C/n1ncc(Cl)c(Cl)c1=O`, in test [1], the fold change (FC) was 8.24.
Regarding `O=c1c(Cl)c(Cl)cnn1/C=C/c1ccc(I)cc1`, the fold change (FC) in test [1] stood at 5.26.
`COc1cccc(/C=C/n2ncc(Cl)c(Cl)c2=O)c1`: the fold change (FC) in test [1] came to 11.1. Besides, the Kd in test [2] is 3.48 µM.
As for `COC(=O)c1ccc(/C=C/n2ncc(Cl)c(Cl)c2=O)cc1`, in test [1], the fold change (FC) amounted to 2.07.
With `Nc1ccc(/C=C/n2ncc(Cl)c(Cl)c2=O)cc1`, the fold change (FC) in test [1] worked out at 12.2. Also, the Kd in test [2] was determined as 2.95 µM.
For the compound `O=c1c(Cl)c(Cl)cnn1/C=C/c1ccc(-c2ccccc2)cc1`, in test [1], the fold change (FC) was found to be 1.92.
Same read-out and setting: then `O=c1c(Cl)c(Cl)cnn1/C=C/c1ccc(/C=C\c2ccccc2)cc1`, with 2.04.
Consider `Cc1ccc2c(c1)sc(-c1ccc(N(C)C)cc1)[n+]2C`, for which, in the test filed under Mus musculus [3], the result was inactive.
Turning to `COc1cc(OC)c(/C=C/n2ncc(Cl)c(Cl)c2=O)c(OC)c1`, the fold change (FC) in test [1] turned out to be 11.7. In test [2], the Kd stood at 17.6 µM.
For `COc1cc(OC)c(OC)cc1/C=C/n1ncc(Cl)c(Cl)c1=O`, the fold change (FC) in test [1] amounted to 3.95.
Take `O=c1c(Cl)c(Cl)cnn1/C=C/c1ccc(Br)cc1`: the fold change (FC) in test [1] is 2.12.
As to `CN(C)c1ccc(/C=C/n2ncc(Cl)c(Cl)c2=O)cc1`, the result (in test [4]; in the test filed under Mus musculus [5]) was Active. In addition, the outcome in the test listed under Mus musculus [3] was inactive. The fold change (FC) in test [1] worked out at 40.8. Also, the Kd in test [2] is 1.84 µM.
Take `O=c1c(Cl)c(Cl)cnn1/C=C/c1ccccc1`: the fold change (FC) in test [1] was found to be 4.72.
As to `COc1cc(/C=C/n2ncc(Cl)c(Cl)c2=O)cc(OC)c1`, the fold change (FC) in test [1] was 5.37.
